The kinase profiling compilation of Christmann-Franck et al. (2016)

Columns and labels:
Assay in all cases: KINOMEscan competition binding
Conditions in all cases: compound 10.0 µM; call rule not given here
ADCK3 (human) = ADCK3 (human) (UniProt Q8NI60)
AKT2 (human) = AKT2 (human) (UniProt P31751)
BMPR1A (human) = BMPR1A (human) (UniProt P36894)
CAMK1 (human) = CAMK1 (human) (UniProt Q14012)
CAMK1G (human) = CAMK1G (human) (UniProt Q96NX5)
CAMK2B (human) = CAMK2B (human) (UniProt Q13554)
CSK (human) = CSK (human) (UniProt P41240)
DMPK (human) = DMPK (human) (UniProt Q09013)
EGFR (human) = EGFR (human) (UniProt P00533)
EPHA4 (human) = EPHA4 (human) (UniProt P54764)
EPHA7 (human) = EPHA7 (human) (UniProt Q15375)
EPHB2 (human) = EPHB2 (human) (UniProt P29323)
EPHB4 (human) = EPHB4 (human) (UniProt P54760)
FGFR3 (human) = FGFR3 (human) (UniProt P22607)
FGFR3 (human), sequence (P22607 whole entry, looked up): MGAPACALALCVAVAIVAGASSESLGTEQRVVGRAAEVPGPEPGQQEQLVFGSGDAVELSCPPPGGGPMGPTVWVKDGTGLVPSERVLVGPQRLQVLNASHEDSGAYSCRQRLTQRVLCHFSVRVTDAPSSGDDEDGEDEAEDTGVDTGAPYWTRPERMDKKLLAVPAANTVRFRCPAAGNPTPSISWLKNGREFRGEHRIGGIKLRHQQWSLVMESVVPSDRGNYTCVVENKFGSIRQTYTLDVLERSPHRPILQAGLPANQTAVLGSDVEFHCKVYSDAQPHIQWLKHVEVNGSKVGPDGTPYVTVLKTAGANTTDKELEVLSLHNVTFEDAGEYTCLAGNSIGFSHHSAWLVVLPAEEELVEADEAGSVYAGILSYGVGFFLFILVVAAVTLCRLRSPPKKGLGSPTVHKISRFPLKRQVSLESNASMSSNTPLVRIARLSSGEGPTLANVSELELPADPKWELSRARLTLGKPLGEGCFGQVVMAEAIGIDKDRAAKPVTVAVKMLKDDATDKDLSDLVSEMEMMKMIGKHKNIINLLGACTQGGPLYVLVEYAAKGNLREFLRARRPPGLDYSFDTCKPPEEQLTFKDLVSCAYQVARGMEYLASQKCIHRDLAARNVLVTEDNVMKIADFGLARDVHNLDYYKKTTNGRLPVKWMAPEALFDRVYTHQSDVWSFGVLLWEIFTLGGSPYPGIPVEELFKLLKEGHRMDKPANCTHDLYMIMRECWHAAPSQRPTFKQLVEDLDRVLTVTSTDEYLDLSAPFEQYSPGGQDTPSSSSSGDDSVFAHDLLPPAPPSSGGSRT

INSR (human) = INSR (human) (UniProt P06213)
LIMK1 (human) = LIMK1 (human) (UniProt P53667)
MAP3K4 (human) = MAP3K4 (human) (UniProt Q9Y6R4)
MAPK11 (human) = MAPK11 (human) (UniProt Q15759)
MAPK14 (human) = MAPK14 (human) (UniProt Q16539)
MAPK9 (human) = MAPK9 (human) (UniProt P45984)
MARK1 (human) = MARK1 (human) (UniProt Q9P0L2)
MARK4 (human) = MARK4 (human) (UniProt Q96L34)
NEK7 (human) = NEK7 (human) (UniProt Q8TDX7)
NTRK1 (human) = NTRK1 (human) (UniProt P04629)
PAK1 (human) = PAK1 (human) (UniProt Q13153)
PAK6 (human) = PAK6 (human) (UniProt Q9NQU5)
PAK7 (human) = PAK7 (human) (UniProt Q9P286)
PAK7 (human), sequence (Q9P286 whole entry, looked up): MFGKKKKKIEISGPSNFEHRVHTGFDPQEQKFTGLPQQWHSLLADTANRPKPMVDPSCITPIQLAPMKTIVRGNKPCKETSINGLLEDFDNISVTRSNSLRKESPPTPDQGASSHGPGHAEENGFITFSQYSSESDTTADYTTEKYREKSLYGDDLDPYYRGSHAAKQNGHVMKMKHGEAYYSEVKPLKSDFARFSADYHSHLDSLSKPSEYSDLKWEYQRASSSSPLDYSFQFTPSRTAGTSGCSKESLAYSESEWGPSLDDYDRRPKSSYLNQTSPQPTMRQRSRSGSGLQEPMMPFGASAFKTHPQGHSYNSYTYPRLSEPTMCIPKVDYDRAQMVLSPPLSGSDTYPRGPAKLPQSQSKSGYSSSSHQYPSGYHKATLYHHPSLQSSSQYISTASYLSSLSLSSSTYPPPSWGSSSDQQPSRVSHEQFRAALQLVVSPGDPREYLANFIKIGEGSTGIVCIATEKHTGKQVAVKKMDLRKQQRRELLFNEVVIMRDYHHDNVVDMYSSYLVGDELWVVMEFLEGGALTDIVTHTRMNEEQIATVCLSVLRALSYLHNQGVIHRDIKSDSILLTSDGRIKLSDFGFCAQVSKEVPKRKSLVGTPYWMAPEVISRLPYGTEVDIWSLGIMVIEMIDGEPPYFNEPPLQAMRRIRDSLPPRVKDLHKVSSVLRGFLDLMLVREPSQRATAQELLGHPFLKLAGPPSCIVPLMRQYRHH

PHKG1 (human) = PHKG1 (human) (UniProt Q16816)
PLK1 (human) = PLK1 (human) (UniProt P53350)
PLK1 (human), sequence (P53350 whole entry, looked up): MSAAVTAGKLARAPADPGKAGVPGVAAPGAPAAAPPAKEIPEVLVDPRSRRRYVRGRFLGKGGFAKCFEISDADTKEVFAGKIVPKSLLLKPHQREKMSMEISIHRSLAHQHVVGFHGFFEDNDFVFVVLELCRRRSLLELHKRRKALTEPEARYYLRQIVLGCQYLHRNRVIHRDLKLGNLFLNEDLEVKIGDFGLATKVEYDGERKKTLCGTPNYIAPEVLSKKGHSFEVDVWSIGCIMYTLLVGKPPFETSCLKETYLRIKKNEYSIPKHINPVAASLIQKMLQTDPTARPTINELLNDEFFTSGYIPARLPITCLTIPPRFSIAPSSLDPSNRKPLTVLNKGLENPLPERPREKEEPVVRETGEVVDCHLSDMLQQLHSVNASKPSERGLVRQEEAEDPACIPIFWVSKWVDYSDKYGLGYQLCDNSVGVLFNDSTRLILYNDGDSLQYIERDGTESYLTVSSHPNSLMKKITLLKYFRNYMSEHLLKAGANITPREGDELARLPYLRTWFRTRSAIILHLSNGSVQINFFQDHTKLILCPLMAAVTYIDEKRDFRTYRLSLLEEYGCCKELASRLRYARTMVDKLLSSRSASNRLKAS

PRKG2 (human) = PRKG2 (human) (UniProt Q13237)
PTK2 (human) = PTK2 (human) (UniProt Q05397)
PTK2B (human) = PTK2B (human) (UniProt Q14289)
PTK6 (human) = PTK6 (human) (UniProt Q13882)
RPS6KA3 KD1 (human) = RPS6KA3 KD1 (human) (UniProt P51812)
RPS6KA4 KD1 (human) = RPS6KA4 KD1 (human) (UniProt O75676)
RPS6KA4 KD1 (human), sequence (O75676 whole entry, looked up): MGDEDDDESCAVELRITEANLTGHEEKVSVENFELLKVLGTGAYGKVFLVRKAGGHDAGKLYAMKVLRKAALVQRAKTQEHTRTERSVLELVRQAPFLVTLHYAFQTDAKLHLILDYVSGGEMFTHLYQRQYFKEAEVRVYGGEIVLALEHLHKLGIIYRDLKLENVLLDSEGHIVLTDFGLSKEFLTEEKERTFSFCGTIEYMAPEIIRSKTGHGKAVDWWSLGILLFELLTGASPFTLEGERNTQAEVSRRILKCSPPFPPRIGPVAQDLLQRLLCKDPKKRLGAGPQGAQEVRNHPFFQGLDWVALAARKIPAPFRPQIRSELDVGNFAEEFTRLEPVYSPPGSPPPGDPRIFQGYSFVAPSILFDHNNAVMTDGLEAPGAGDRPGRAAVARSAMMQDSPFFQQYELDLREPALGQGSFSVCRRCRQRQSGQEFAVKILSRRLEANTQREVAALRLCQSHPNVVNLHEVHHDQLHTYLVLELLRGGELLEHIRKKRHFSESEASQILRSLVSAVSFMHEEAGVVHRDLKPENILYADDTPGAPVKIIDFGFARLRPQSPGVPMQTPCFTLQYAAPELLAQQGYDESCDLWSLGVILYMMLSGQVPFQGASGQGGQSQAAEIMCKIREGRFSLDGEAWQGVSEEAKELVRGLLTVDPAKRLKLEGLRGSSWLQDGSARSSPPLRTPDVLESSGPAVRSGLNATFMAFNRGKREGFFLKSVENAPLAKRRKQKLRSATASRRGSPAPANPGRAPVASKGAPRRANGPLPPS

STK25 (human) = STK25 (human) (UniProt O00506)
STK25 (human), sequence (O00506 whole entry, looked up): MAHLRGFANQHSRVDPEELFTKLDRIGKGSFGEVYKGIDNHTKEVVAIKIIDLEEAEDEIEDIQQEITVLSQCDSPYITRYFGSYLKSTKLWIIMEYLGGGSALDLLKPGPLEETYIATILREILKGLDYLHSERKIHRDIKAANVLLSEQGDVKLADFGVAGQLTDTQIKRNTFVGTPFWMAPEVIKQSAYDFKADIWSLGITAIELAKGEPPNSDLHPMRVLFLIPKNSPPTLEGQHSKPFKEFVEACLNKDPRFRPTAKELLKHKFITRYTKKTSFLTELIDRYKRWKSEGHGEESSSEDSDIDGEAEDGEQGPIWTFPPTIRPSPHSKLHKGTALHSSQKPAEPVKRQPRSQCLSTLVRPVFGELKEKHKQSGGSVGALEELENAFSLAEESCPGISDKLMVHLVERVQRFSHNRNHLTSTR

STK36 (human) = STK36 (human) (UniProt Q9NRP7)
TGFBR1 (human) = TGFBR1 (human) (UniProt P36897)
TGFBR1 (human), sequence (P36897 whole entry, looked up): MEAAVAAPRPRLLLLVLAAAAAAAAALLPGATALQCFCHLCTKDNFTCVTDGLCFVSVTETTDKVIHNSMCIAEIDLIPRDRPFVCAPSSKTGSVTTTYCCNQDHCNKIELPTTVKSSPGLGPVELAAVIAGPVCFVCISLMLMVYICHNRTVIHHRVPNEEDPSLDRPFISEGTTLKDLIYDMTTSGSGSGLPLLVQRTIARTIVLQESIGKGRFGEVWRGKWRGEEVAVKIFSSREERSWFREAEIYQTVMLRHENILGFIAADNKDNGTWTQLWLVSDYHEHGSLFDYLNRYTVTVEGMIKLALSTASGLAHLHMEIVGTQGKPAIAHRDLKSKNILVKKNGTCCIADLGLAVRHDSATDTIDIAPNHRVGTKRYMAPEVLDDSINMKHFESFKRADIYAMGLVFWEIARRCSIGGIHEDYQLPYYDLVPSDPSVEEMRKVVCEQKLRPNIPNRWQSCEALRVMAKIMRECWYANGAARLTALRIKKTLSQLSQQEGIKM

TLK2 (human) = TLK2 (human) (UniProt Q86UE8)
ZAP70 (human) = ZAP70 (human) (UniProt P43403)

AKT2 (human), sequence (P31751 whole entry, looked up): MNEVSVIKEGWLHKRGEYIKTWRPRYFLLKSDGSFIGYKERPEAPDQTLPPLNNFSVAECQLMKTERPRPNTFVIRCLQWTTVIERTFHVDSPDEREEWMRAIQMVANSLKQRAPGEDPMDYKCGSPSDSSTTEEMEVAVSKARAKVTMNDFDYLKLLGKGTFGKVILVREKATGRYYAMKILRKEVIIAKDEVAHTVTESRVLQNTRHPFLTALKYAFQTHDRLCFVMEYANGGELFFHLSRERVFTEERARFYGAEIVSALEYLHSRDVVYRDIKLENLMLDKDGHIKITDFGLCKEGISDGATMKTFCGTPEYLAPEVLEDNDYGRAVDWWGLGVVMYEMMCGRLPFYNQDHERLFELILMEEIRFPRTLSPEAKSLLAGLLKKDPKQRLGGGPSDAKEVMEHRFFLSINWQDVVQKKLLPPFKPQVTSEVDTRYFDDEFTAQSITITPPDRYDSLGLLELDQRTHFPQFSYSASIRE
ADCK3 (human), sequence (Q8NI60 whole entry, looked up): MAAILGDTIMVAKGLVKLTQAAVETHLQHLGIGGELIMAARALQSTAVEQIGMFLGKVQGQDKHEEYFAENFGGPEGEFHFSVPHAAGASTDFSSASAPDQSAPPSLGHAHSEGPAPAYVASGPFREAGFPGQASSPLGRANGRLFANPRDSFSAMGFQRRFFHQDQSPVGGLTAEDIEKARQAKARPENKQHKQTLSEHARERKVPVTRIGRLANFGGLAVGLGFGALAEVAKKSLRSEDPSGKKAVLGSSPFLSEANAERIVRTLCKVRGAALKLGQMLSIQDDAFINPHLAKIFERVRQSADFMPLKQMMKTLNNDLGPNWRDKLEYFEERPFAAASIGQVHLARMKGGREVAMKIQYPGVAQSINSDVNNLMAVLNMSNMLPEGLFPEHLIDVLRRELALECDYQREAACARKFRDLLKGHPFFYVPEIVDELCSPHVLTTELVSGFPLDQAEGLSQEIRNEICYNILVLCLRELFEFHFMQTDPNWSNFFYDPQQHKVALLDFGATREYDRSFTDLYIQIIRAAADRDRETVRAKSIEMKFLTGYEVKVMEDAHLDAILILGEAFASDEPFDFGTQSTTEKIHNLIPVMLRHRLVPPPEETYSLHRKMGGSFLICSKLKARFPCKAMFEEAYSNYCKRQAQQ

Cc1ccc(NC(=O)c2cccc(N3CCCCC3)c2)cc1-c1ccc(C(=O)NCC2CC2)cc1
kinase still bound, per cent of control (ADCK3 (human)): no effect (inactive)
kinase still bound, per cent of control (AKT2 (human)): no effect (inactive)
kinase still bound, per cent of control (BMPR1A (human)): no effect (inactive)
kinase still bound, per cent of control (CAMK1 (human)): no effect (inactive)
kinase still bound, per cent of control (CAMK1G (human)): no effect (inactive)
kinase still bound, per cent of control (CAMK2B (human)): no effect (inactive)
kinase still bound, per cent of control (CSK (human)): no effect (inactive)
kinase still bound, per cent of control (DMPK (human)): no effect (inactive)
kinase still bound, per cent of control (EGFR (human)): no effect (inactive)
kinase still bound, per cent of control (EPHA4 (human)): no effect (inactive)
kinase still bound, per cent of control (EPHA7 (human)): no effect (inactive)
kinase still bound, per cent of control (EPHB2 (human)): no effect (inactive)
kinase still bound, per cent of control (EPHB4 (human)): no effect (inactive)
kinase still bound, per cent of control (FGFR3 (human)): no effect (inactive)
kinase still bound, per cent of control (INSR (human)): no effect (inactive)
kinase still bound, per cent of control (LIMK1 (human)): no effect (inactive)
kinase still bound, per cent of control (MAP3K4 (human)): no effect (inactive)
kinase still bound, per cent of control (MAPK11 (human)): 0%
kinase still bound, per cent of control (MAPK14 (human)): 0%
kinase still bound, per cent of control (MAPK9 (human)): no effect (inactive)
kinase still bound, per cent of control (MARK1 (human)): no effect (inactive)
kinase still bound, per cent of control (MARK4 (human)): no effect (inactive)
kinase still bound, per cent of control (NEK7 (human)): no effect (inactive)
kinase still bound, per cent of control (NTRK1 (human)): no effect (inactive)
kinase still bound, per cent of control (PAK1 (human)): no effect (inactive)
kinase still bound, per cent of control (PAK6 (human)): no effect (inactive)
kinase still bound, per cent of control (PAK7 (human)): no effect (inactive)
kinase still bound, per cent of control (PHKG1 (human)): no effect (inactive)
kinase still bound, per cent of control (PLK1 (human)): no effect (inactive)
kinase still bound, per cent of control (PRKG2 (human)): no effect (inactive)
kinase still bound, per cent of control (PTK2 (human)): no effect (inactive)
kinase still bound, per cent of control (PTK2B (human)): no effect (inactive)
kinase still bound, per cent of control (PTK6 (human)): no effect (inactive)
kinase still bound, per cent of control (RPS6KA3 KD1 (human)): no effect (inactive)
kinase still bound, per cent of control (RPS6KA4 KD1 (human)): no effect (inactive)
kinase still bound, per cent of control (STK25 (human)): no effect (inactive)
kinase still bound, per cent of control (STK36 (human)): no effect (inactive)
kinase still bound, per cent of control (TGFBR1 (human)): no effect (inactive)
kinase still bound, per cent of control (TLK2 (human)): no effect (inactive)
kinase still bound, per cent of control (ZAP70 (human)): no effect (inactive)

c1ccc(-c2n[nH]cc2-c2ccnc3ccccc23)nc1
kinase still bound, per cent of control (ADCK3 (human)): no effect (inactive)
kinase still bound, per cent of control (AKT2 (human)): no effect (inactive)
kinase still bound, per cent of control (BMPR1A (human)): no effect (inactive)
kinase still bound, per cent of control (CAMK1 (human)): no effect (inactive)
kinase still bound, per cent of control (CAMK1G (human)): no effect (inactive)
kinase still bound, per cent of control (CAMK2B (human)): no effect (inactive)
kinase still bound, per cent of control (CSK (human)): no effect (inactive)
kinase still bound, per cent of control (DMPK (human)): no effect (inactive)
kinase still bound, per cent of control (EGFR (human)): no effect (inactive)
kinase still bound, per cent of control (EPHA4 (human)): no effect (inactive)
kinase still bound, per cent of control (EPHA7 (human)): no effect (inactive)
kinase still bound, per cent of control (EPHB2 (human)): no effect (inactive)
kinase still bound, per cent of control (EPHB4 (human)): no effect (inactive)
kinase still bound, per cent of control (FGFR3 (human)): no effect (inactive)
kinase still bound, per cent of control (INSR (human)): no effect (inactive)
kinase still bound, per cent of control (LIMK1 (human)): no effect (inactive)
kinase still bound, per cent of control (MAP3K4 (human)): no effect (inactive)
kinase still bound, per cent of control (MAPK11 (human)): no effect (inactive)
kinase still bound, per cent of control (MAPK14 (human)): no effect (inactive)
kinase still bound, per cent of control (MAPK9 (human)): no effect (inactive)
kinase still bound, per cent of control (MARK1 (human)): no effect (inactive)
kinase still bound, per cent of control (MARK4 (human)): no effect (inactive)
kinase still bound, per cent of control (NEK7 (human)): no effect (inactive)
kinase still bound, per cent of control (NTRK1 (human)): no effect (inactive)
kinase still bound, per cent of control (PAK1 (human)): no effect (inactive)
kinase still bound, per cent of control (PAK6 (human)): no effect (inactive)
kinase still bound, per cent of control (PAK7 (human)): no effect (inactive)
kinase still bound, per cent of control (PHKG1 (human)): no effect (inactive)
kinase still bound, per cent of control (PLK1 (human)): no effect (inactive)
kinase still bound, per cent of control (PRKG2 (human)): no effect (inactive)
kinase still bound, per cent of control (PTK2 (human)): no effect (inactive)
kinase still bound, per cent of control (PTK2B (human)): no effect (inactive)
kinase still bound, per cent of control (PTK6 (human)): no effect (inactive)
kinase still bound, per cent of control (RPS6KA3 KD1 (human)): no effect (inactive)
kinase still bound, per cent of control (RPS6KA4 KD1 (human)): no effect (inactive)
kinase still bound, per cent of control (STK25 (human)): no effect (inactive)
kinase still bound, per cent of control (STK36 (human)): no effect (inactive)
kinase still bound, per cent of control (TGFBR1 (human)): 0%
kinase still bound, per cent of control (TLK2 (human)): no effect (inactive)
kinase still bound, per cent of control (ZAP70 (human)): no effect (inactive)

CCS(=O)(=O)Nc1ccc2c(c1)[C@H](/C(=N/c1ccc(CN3CCCCC3)cc1)c1ccccc1)C(=O)N2
kinase still bound, per cent of control (ADCK3 (human)): 27.2%
kinase still bound, per cent of control (AKT2 (human)): no effect (inactive)
kinase still bound, per cent of control (BMPR1A (human)): 4.35%
kinase still bound, per cent of control (CAMK1 (human)): 8.3%
kinase still bound, per cent of control (CAMK1G (human)): no effect (inactive)
kinase still bound, per cent of control (CAMK2B (human)): 4.6%
kinase still bound, per cent of control (CSK (human)): 0%
kinase still bound, per cent of control (DMPK (human)): no effect (inactive)
kinase still bound, per cent of control (EGFR (human)): 21.2%
kinase still bound, per cent of control (EPHA4 (human)): 3.6%
kinase still bound, per cent of control (EPHA7 (human)): 0%
kinase still bound, per cent of control (EPHB2 (human)): 0.15%
kinase still bound, per cent of control (EPHB4 (human)): 0.7%
kinase still bound, per cent of control (FGFR3 (human)): 0%
kinase still bound, per cent of control (INSR (human)): 0%
kinase still bound, per cent of control (LIMK1 (human)): no effect (inactive)
kinase still bound, per cent of control (MAP3K4 (human)): 28.3%
kinase still bound, per cent of control (MAPK11 (human)): no effect (inactive)
kinase still bound, per cent of control (MAPK14 (human)): no effect (inactive)
kinase still bound, per cent of control (MAPK9 (human)): 0.1%
kinase still bound, per cent of control (MARK1 (human)): 0%
kinase still bound, per cent of control (MARK4 (human)): 0%
kinase still bound, per cent of control (NEK7 (human)): no effect (inactive)
kinase still bound, per cent of control (NTRK1 (human)): 0%
kinase still bound, per cent of control (PAK1 (human)): 4.9%
kinase still bound, per cent of control (PAK6 (human)): 2.6%
kinase still bound, per cent of control (PAK7 (human)): 0%
kinase still bound, per cent of control (PHKG1 (human)): 0.1%
kinase still bound, per cent of control (PLK1 (human)): 1.55%
kinase still bound, per cent of control (PRKG2 (human)): 0%
kinase still bound, per cent of control (PTK2 (human)): 0%
kinase still bound, per cent of control (PTK2B (human)): 0%
kinase still bound, per cent of control (PTK6 (human)): 1.8%
kinase still bound, per cent of control (RPS6KA3 KD1 (human)): 0%
kinase still bound, per cent of control (RPS6KA4 KD1 (human)): 0%
kinase still bound, per cent of control (STK25 (human)): 0.4%
kinase still bound, per cent of control (STK36 (human)): no effect (inactive)
kinase still bound, per cent of control (TGFBR1 (human)): 0%
kinase still bound, per cent of control (TLK2 (human)): 1.5%
kinase still bound, per cent of control (ZAP70 (human)): no effect (inactive)
